Data taken from ChEMBL document CHEMBL5321275, “Discovery, Optimization, and Evaluation of Novel N-(Benzimidazol-5-yl)-1,3,4-thiadiazol-2-amine Analogues as Potent STAT3 Inhibitors for Cancer Treatment” (J Med Chem, 2023).
pIC50: −log10 of the molar value. Active and inactive are the calls of the source. The rule behind the calls is not given here.

How the values were obtained:
[1] = Toxicity in Balb/c mouse assessed as effect on spleen at 50 mg/kg by hematoxylin and eosin staining based histopathological analysis; format: organism-based; conditions: in vivo
[2] = Cmax in ICR mouse at 50 mg/kg, po measured upto 96 hrs by HPLC-MS/MS analysis; format: ADME, organism-based; set-up: time < 96 hrs, dose 50 mg/kg, route po; conditions: in vivo
[3] = test system: HepG2; assay: Antiproliferative activity against human HepG2 cells assessed as inhibition of cell growth measured after 96 hrs by MTT assay; format: functional, cell-based; conditions: HepG2, 96 h
[4] = test system: MDA-MB-231; assay: Induction of apoptosis in human MDA-MB-231 cells assessed as late apoptotic cells at 1 uM measured after 48 hrs by annexin V-FITC and PI staining based flow cytometry analysis (reference value: 3.1%); format: functional
[5] = Clearance in ICR mouse at 50 mg/kg, po measured upto 96 hrs by HPLC-MS/MS analysis; format: ADME, organism-based; conditions: in vivo
[6] = test system: DU-145; assay: Induction of apoptosis in human DU-145 cells assessed as early apoptotic cells at 10 uM measured after 48 hrs by annexin V-FITC and PI staining based flow cytometry analysis (reference value: 2.5%); format: functional
[7] = target: T1, Signal transducer and activator of transcription 3 (Homo sapiens, UniProt P40763); assay: Inhibition of 5-carboxyfluorescein-GY(PO3H2)LPQTV-NH2 peptide probe binding to human STAT3 SH2 domain preincubated for 30 mins followed by probe addition and measured after 1 hr by fluorescence polarization assay
[8] = Toxicity in Balb/c mouse assessed as drug tolerance at 50 mg/kg, ip administered once daily for 16 days; format: organism-based; conditions: in vivo, 384 h, time 16 day
[9] = Toxicity in Balb/c mouse assessed as effect on liver at 50 mg/kg by hematoxylin and eosin staining based histopathological analysis; format: organism-based; conditions: in vivo
[10] = AUC (0 to t) in ICR mouse at 50 mg/kg, po measured upto 96 hrs by HPLC-MS/MS analysis; format: ADME, organism-based; set-up: dose 50 mg/kg, time < 96 hrs, route po; conditions: in vivo
[11] = test system: MDA-MB-231; assay: Induction of apoptosis in human MDA-MB-231 cells assessed as late apoptotic cells at 10 uM measured after 48 hrs by annexin V-FITC and PI staining based flow cytometry analysis (reference value: 3.1%); format: functional
[12] = AUC (0 to t) in ICR mouse at 5 mg/kg, iv measured upto 96 hrs by HPLC-MS/MS analysis; format: ADME, organism-based; set-up: time < 96 hrs, dose 5 mg/kg, route iv; conditions: in vivo
[13] = target: Tyrosine-protein kinase JAK2 (Homo sapiens) (UniProt O60674); assay: Inhibition of JAK2 phosphorylation in human DU-145 cells at 10 uM measured after 24 hrs by Western blot analysis; format: cell-based
[14] = target: T2, Signal transducer and activator of transcription 5A (Homo sapiens) (UniProt P42229); assay: Inhibition of STAT5 phosphorylation in human DU-145 cells at 10 uM measured after 24 hrs by Western blot analysis; format: cell-based
T2 sequence (whole entry): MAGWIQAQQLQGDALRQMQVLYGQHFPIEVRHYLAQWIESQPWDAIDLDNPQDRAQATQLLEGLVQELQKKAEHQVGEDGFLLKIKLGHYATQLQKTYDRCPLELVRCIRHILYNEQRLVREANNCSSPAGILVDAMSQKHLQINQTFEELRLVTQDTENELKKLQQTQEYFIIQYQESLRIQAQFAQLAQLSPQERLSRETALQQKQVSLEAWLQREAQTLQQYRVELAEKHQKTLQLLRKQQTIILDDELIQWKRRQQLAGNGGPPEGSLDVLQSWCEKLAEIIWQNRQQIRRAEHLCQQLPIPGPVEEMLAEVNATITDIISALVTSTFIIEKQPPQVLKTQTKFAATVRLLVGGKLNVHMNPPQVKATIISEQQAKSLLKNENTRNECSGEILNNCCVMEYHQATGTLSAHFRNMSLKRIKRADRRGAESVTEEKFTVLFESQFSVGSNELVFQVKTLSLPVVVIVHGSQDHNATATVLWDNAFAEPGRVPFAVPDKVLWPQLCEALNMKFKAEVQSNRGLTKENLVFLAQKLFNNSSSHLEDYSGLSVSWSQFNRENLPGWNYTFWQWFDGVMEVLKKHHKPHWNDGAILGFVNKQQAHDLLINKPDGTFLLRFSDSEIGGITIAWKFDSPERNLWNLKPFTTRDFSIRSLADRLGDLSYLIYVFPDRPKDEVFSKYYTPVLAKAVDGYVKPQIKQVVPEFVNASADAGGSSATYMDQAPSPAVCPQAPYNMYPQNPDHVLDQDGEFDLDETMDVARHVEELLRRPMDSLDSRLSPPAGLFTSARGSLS

[15] = test system: DU-145; assay: Induction of apoptosis in human DU-145 cells assessed as late apoptotic cells at 5 uM measured after 48 hrs by annexin V-FITC and PI staining based flow cytometry analysis (reference value: 2.0%); format: functional
[16] = test system: MDA-MB-231; assay: Antiproliferative activity against human MDA-MB-231 cells assessed as inhibition of cell growth measured after 96 hrs by MTT assay; format: functional, cell-based; conditions: MDA-MB-231, 96 h
[17] = MRT (0 to infinity) in ICR mouse at 5 mg/kg, iv measured upto 96 hrs by HPLC-MS/MS analysis; format: ADME, organism-based; conditions: in vivo
[18] = test system: DU-145; assay: Induction of apoptosis in human DU-145 cells assessed as late apoptotic cells at 10 uM measured after 48 hrs by annexin V-FITC and PI staining based flow cytometry analysis (reference value: 2.0%); format: functional
[19] = target: T1, Signal transducer and activator of transcription 3; assay: Inhibition of STAT3 in human DU-145 cells assessed as downregulation of c-myc expression at upto 10 uM measured after 24 hrs; format: cell-based
[20] = test system: DU-145; assay: Induction of apoptosis in human DU-145 cells measured after 48 hrs by annexin V-FITC and PI staining based flow cytometry analysis; format: functional, cell-based; conditions: dose <= 10.0 µM
[21] = Metabolic stability in mouse liver microsomes assessed as half life in presence of NADPH/UDPGA; format: ADME, Microsome
[22] = target: T1, Signal transducer and activator of transcription 3; assay: Inhibition of STAT3 phosphorylation at Tyr705 residue in human MDA-MB-231 cells incubated for 24 hrs by Western blot analysis; format: cell-based; conditions: dose <= 10.0 µM
[23] = test system: DU-145; assay: Antitumor activity against human DU-145 cells xenografted in Balb/c nude mouse model assessed as tumor growth inhibition at 50 mg/kg, ip administered once daily for 16 days by vernier caliper method relative to control; format: functional; conditions: DU-145, 384 h, time 16 day, read-out: TGI
[24] = test system: DU-145; assay: Induction of apoptosis in human DU-145 cells assessed as cell apoptotic percentage at 10 uM measured after 48 hrs by annexin V-FITC and PI staining based flow cytometry analysis relative to control; format: functional
[25] = test system: PANC-1; assay: Antiproliferative activity against human PANC-1 cells assessed as inhibition of cell growth measured after 96 hrs by MTT assay; format: functional, cell-based; conditions: PANC-1, 96 h
[26] = test system: DU-145; assay: Antiproliferative activity against human DU-145 cells assessed as inhibition of cell growth measured after 96 hrs by MTT assay; format: functional, cell-based; conditions: DU-145, 96 h
[27] = test system: DU-145; assay: Antiproliferative activity against human DU-145 cells assessed as inhibition of cell growth at 10 uM measured after 96 hrs by MTT assay relative to control; format: functional
[28] = Antiproliferative activity against human PBMC cells assessed as inhibition of cell growth measured after 96 hrs by MTT assay; format: functional, cell-based
[29] = target: T1, Signal transducer and activator of transcription 3; assay: Inhibition of STAT3 phosphorylation at Tyr705 residue in human DU-145 cells incubated for 24 hrs by Western blot analysis; format: cell-based; conditions: dose <= 10.0 µM

T1 sequence (P40763 whole entry, the tested form may be a part): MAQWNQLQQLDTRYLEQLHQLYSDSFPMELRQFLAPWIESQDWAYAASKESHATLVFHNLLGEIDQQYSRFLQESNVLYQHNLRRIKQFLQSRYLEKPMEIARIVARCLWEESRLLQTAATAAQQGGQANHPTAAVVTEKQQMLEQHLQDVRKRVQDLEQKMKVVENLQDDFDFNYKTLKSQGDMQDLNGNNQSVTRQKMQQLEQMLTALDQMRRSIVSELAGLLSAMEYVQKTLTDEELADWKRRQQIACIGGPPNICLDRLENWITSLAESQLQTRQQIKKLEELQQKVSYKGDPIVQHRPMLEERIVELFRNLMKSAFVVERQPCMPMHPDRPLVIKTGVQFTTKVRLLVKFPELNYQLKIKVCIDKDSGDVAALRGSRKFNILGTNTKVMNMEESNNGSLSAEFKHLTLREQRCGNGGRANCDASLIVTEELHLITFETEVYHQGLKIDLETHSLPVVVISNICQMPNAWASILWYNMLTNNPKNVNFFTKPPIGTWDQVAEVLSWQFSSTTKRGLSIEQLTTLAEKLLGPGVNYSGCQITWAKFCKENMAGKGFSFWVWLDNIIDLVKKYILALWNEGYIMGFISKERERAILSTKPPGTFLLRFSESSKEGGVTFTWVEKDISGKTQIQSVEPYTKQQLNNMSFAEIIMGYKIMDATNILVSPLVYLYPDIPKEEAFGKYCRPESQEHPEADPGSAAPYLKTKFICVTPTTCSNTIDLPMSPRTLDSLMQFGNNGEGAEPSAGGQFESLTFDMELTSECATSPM
Tyrosine-protein kinase JAK2 (Homo sapiens), sequence (O60674 whole entry): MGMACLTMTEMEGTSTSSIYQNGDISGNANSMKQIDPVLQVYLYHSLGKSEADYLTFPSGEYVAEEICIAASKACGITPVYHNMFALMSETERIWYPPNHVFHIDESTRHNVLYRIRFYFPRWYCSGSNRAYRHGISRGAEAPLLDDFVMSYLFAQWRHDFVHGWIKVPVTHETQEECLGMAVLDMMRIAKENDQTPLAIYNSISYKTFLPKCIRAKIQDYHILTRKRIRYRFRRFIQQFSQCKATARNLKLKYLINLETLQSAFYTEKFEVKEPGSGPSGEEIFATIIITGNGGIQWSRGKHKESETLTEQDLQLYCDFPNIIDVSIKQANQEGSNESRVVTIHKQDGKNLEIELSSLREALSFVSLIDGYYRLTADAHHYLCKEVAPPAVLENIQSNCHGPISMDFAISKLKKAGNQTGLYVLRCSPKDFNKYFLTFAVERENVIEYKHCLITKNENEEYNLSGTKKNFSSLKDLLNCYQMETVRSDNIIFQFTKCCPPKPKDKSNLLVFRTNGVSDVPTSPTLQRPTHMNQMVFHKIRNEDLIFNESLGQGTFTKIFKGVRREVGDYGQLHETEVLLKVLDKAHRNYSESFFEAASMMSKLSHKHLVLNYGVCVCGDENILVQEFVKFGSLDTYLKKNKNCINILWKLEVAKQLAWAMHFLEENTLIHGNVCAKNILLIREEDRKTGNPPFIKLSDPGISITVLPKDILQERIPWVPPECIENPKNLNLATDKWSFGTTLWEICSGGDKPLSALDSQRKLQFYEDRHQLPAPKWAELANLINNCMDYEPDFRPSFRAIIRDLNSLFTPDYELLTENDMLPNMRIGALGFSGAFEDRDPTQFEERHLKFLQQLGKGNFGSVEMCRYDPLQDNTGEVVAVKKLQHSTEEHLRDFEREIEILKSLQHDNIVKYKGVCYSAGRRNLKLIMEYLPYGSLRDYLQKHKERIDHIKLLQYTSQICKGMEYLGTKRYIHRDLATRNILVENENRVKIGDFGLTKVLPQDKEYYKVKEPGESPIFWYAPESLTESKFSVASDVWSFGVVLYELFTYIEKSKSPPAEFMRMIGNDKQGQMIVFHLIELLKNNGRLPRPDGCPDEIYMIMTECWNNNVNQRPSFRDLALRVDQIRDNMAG

- Cmax [2]: 910 ng/mL
- pIC50 [3]: 5.84
- CL/F [5]: 46.8 mL/min/kg
- pIC50 [7]: 4.80
- AUC(0-t) at 96 h [10]: 17800 ng·h/mL
- AUC(0-t) at 96 h [12]: 3430 ng·h/mL
- inhibition [13]: inactive
- inhibition [14]: inactive
- pIC50 [16]: 5.49
- MRT inf [17]: 15.3 h
- inhibition [19]: Active
- half-life [21]: 6.28 h
- inhibition [22]: Dose-Dependent Effect
- pIC50 [25]: 5.61
- pIC50 [26]: 5.53
- inhibition [29]: Dose-Dependent Effect
Structure (SMILES): CN1CCN(c2cc3c(cc2Nc2nnc(-c4ccc(C(F)(F)F)cc4)s2)nc(-c2ccc(F)cc2)n3C2CC2)CC1
- Activity [1]: Non-Toxic
- Activity [4]: 5.1%
- Activity [6]: 34%
- Activity [8]: Non-Toxic
- Activity [9]: Non-Toxic
- Activity [11]: 20.1%
- Activity [15]: 13.9%
- Activity [18]: 45.6%
- Activity [20]: Dose-Dependent Effect
- inhibition in vivo at 50 mg/kg [23]: 65.3%
- Activity [24]: 79.6%
- inhibition at 10 µM [27]: 92.7%
- pIC50 [28]: 4.79
